Series [1] relates to HT-29 colon cancer cells. Nature of the series: apoptosis in HT-29 cells, combination with chemotherapy drugs. The series is classed as cell-based. The note with it: for interaction of chemotherapy drug with the zinc-charged peptide: drug 6 μg per ml 12 hours, then zinc-charged 4H 4 μM for 6 hours. As for the experimental part: To test this, HT-29 colon cancer cells were pre-incubated with various chemotherapy drugs at 6 μg per ml for 12 hours, then zinc-charged 4H at 4 μM was added for an additional 6 hours. Most chemotherapy drugs take up to 48 hours to see substantial apoptosis, and as such, the cells were pre-incubated with chemotherapy drugs first. The chemotherapy drugs tested included actinomycin (“A”), carmustine (“C”), docorubicin (“Dox”), genistin (“G”), 5-FU, and Tarceva.

Series [2] in a line: water solubility of the peptides. The series is classed as physicochemical. The note with it: uncharged peptide, last amino acid changed.
For series [3], the system named is various cancer cell lines. Nature of the series: apoptosis-inducing activity on cancer cell lines (earlier work). Format: cell-based. The note with it: in vitro cell culture. The text has this:
Cow milk is known to contain numerous proteins and other beneficial compounds for humans.
Since alpha-lactalbumin is the major milk protein present in milk, this protein was first tested to determine if the bioactive peptides were derived from alpha-Lactalbumin. Purified alpha-lactalbumin was therefore treated with EDTA and zinc acetate.

A short description of series [4]: absorption by gastrointestinal tract (earlier work). The note with it: before enzymatic digestion with papain. The series is classed as in vivo.
For a further series, the system named is HT-29 cancer cells. Nature of the series: biochemical analysis of HT-29 cell lysate (lactate, ATP, G-6-P). Format: cell-based. As for the experimental part: To determine the mechanism of induction of apoptosis to HT-29 cancer cells by the zinc-charged peptides, a low concentration (1 μM) of zinc-charged 4H was incubated with HT-29 cancer cells, followed by biochemical analysis of the cell lysate of the HT-29 cancer cells.
Furthermore, the decreased lactate was associated with a lower ATP level and a lower Glucose-6-phosphate (G-6-P) level in HT-29 cells.

Series [5] addresses T1, hexokinase II (Homo sapiens, UniProt P52789).
T1 sequence (P52789 1-917): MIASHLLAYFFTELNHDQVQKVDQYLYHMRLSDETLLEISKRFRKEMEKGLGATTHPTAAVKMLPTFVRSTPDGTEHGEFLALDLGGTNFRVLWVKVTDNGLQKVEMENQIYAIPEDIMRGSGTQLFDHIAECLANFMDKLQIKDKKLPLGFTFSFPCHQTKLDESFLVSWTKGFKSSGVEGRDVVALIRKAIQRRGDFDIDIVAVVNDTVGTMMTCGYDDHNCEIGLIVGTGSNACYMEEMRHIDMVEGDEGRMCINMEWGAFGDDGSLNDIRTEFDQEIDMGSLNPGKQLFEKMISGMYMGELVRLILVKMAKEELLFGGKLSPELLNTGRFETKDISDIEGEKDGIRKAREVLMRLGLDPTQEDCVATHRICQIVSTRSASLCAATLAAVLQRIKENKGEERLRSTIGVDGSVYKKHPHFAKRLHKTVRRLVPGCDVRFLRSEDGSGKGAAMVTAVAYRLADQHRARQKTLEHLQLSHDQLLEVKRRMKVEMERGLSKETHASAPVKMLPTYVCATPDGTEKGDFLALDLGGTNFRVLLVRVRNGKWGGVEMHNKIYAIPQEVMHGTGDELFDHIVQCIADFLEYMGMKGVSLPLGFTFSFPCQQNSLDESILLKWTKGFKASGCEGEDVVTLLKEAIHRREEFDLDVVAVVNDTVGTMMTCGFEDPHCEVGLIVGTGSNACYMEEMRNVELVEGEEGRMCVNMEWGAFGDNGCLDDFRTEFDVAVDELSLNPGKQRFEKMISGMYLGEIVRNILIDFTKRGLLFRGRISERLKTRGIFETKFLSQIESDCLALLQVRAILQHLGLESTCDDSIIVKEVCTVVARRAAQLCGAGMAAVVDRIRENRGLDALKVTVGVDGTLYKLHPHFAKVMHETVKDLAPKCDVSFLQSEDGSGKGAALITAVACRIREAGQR
The series can be described thus: in vitro hexokinase II assay. Format: biochemical. How it is done:
To test confirm that the zinc-charged peptides inhibit hexokinase II resulting in the inhibition of glycolysis, an in vitro hexokinase II assay was performed. FIG. 7 depicts the results of the in vitro hexokinase II assay. In this test, it was observed that hexokinase II was inhibited by zinc-charged 4H in a dose-dependent manner. […] These findings confirm that the zinc-charged peptides inhibit glycolysis at the hexokinase II enzyme level.

Series [6] deals with HT-29 colon cancer cells. Nature of the series: glycolysis (lactate) inhibition in cell lysate, HT-29. The series is classed as cell-based.
The test system of series [7] is normal colon cell line CCD18Co. The series can be described thus: glycolysis (lactate) inhibition in cell lysate, CCD18Co. The series is classed as cell-based.
Another series relates to Calu-1 lung cancer cells. Nature of the series: glycolysis (lactate) inhibition in cell lysate, Calu-1. The series is classed as cell-based. As for the experimental part: (§1) The zinc-charged peptides ability to inhibit glycolysis in other cancer cell lines, such as lung cancer, compared to their normal counterparts was also tested.
Another series concerns normal WI38 lung cells. Nature of the series: glycolysis (lactate) inhibition in cell lysate, WI38. The series is classed as cell-based. As for the experimental part:
as §1

The nature of series [8]: glycolysis and ATP in brain and muscle of normal mice fed zinc-charged 4H. The series is classed as in vivo. The note with it: 0.5 mg per mouse per day, 5 days, oral. How it is done: To further study this observed phenomena in vivo, normal mice were fed with the zinc-charged 4H for five days, and the glycolysis of normal brain cells were studied. FIG. 9 depicts the results of this study. For this study, two groups of mice having four mice per group were compared, one being the control and the other being fed 0.5 mg of zinc-charged 4H per mouse per day for 5 days orally. After 5 days, brain and muscle tissue was collected, homogenized, and assayed for glycolysis rate.
In mice fed with 0.5 mg of zinc-charged 4H for 5 days, the brain glycolysis of these mice was enhanced by 44%.

Series [9] concerns the target T1, hexokinase II. The series can be described thus: subcellular hexokinase II activity in HT-29 cells. Format: cell-based. The note with it: HT-29, 1 μM, 5 hours. How it is done: FIGS. 14-16 depicts the testing results validating that the zinc-charged peptides inhibit each of these three bioenergetic pathways. FIG. 14 depicts the subcellular hexokinase II activity in mitochondria, cytosol, and microsome to determine whether the zinc-charged peptides inhibit the hexokinase II activity in mitochondria. For this test, HT-29 cancer cells were incubated with zinc-charged 4H at 1 μM for 5 hours. After incubation, sub-cellular fractions including cytosol, microsome, and mitochondria were prepared and the hexokinase II activity on these sub-cellular fractions were tested.

Numbered stars: 1 amine (or outer) side, 2 acyl side, 3 side chain; on linkers, the order of the positions; unused ones are H or OH. Bridge positions count the residues as written; N and C are the ends. Square brackets hold non-standard residues; d marks the D form. Ends that are not written are not given here. Peptide text beside a SMILES is read from it. I, II: the chains in the order shown. Actinocin(9to1) = Cc1c2oc3c(C)ccc(C(=O)[*:1])c3nc-2c(C(=O)[*:2])c(N)c1=O; NMeV = CN[C@H](C(=O)O)C(C)C; Sar = CNCC(=O)O

As for `O=c1[nH]cc(F)c(=O)[nH]1` [5-FU], in the series with HT-29 colon cancer cells [1], the “interaction of chemotherapy drug with the zinc-charged peptide” value (shortened to “interaction of chemotherapy drug”) is reported as “synergistic”.

Regarding `Cc1c2oc3c(C)ccc(C(=O)N[C@@H]4C(=O)N[C@H](C(C)C)C(=O)N5CCC[C@H]5C(=O)N(C)CC(=O)N(C)[C@@H](C(C)C)C(=O)O[C@@H]4C)c3nc-2c(C(=O)N[C@@H]2C(=O)N[C@H](C(C)C)C(=O)N3CCC[C@H]3C(=O)N(C)CC(=O)N(C)[C@@H](C(C)C)C(=O)O[C@@H]2C)c(N)c1=O` [actinomycin] (I: T[dV]P[Sar][NMeV] / II: T[dV]P[Sar][NMeV]; ester I:1-I:C, II:1-II:C; linker I:N-II:N via Actinocin(9to1)), the “interaction of chemotherapy drug” value in the series on HT-29 colon cancer cells [1] was “synergistic”.

With `O=NN(CCCl)C(=O)NCCCl` [carmustine], in the series with HT-29 colon cancer cells [1], the “interaction of chemotherapy drug” value is “synergistic”.

For `COc1cccc2c1C(=O)c1c(O)c3c(c(O)c1C2=O)C[C@@](O)(C(=O)CO)C[C@@H]3O[C@H]1C[C@H](N)[C@H](O)[C@H](C)O1` [doxorubicin], the “interaction of chemotherapy drug” value with HT-29 colon cancer cells [1] was “synergistic”.

On to `O=c1c(-c2ccc(O)cc2)coc2cc(O[C@@H]3O[C@H](CO)[C@@H](O)[C@H](O)[C@H]3O)cc(O)c12` [genistin], for which the “interaction of chemotherapy drug” value in the series on HT-29 colon cancer cells [1] is listed as “synergistic”.

For the compound “EYGLFQISNKK [4H3, E-Y-G-L-F-Q-I-S-N-K-K]”, the “water solubility compared with 4H” value in [2] is reported as “more water-soluble”.

With “zinc-bound alpha-lactalbumin: purified alpha-lactalbumin treated with EDTA and zinc acetate”, in [3], the “apoptosis-inducing activity on various cancer cell lines” value was “contain apoptosis-inducing activity”. Further, in series [4], the “absorption by gastrointestinal tract” value is “unable to be absorbed”.

For “zinc-charged 4H: peptide E-Y-G-L-F-Q-I-S-N-K-L (SEQ. ID NO. 1) charged with zinc ions by EDTA then zinc acetate treatment (EYGLFQISNKL; also: charged with zinc ions)”, in the series on HT-29 colon cancer cells [1] (zinc-charged 4H 4 μM, 6 hours after 12 hours drug pre-incubation), the “percentage of apoptosis in HT-29 cells when added to chemotherapy drugs” value is given as “significantly increased”. Also, in the series with HT-29 cancer cells (1 μM, HT-29 cell lysate), the “lactate lower than control cells” value was determined as 81.4%. Also, the “reduction of intracellular G-6-P level” value in the series with HT-29 cancer cells (HT-29, after 6 hours of incubation) stood at 39.6%. For the same compound, the results for the “hexokinase II inhibition” value with hexokinase II [5] (5 μM), in the series with hexokinase II [5] (10 μM) and with hexokinase II [5] (20 μM) were 28.6%, 79.1% and 94.6%, respectively. The inhibition of glycolysis result in the series on HT-29 colon cancer cells [6] is on record as “up to 34.7%”; in series [7], 10.5%; in the series on Calu-1 lung cancer cells, 11.1%; with normal WI38 lung cells, 0%. The “enhancement of brain glycolysis” value in [8] was found to be 44%. Also, in series [8], the “increase in brain ATP level” value came to 31.4%. Moreover, the “increase of muscle glycolysis” value in series [8] is given as 15%. For the same compound, the “inhibition of mitochondria associated hexokinase II activity” value in the series with hexokinase II [9] is given as 53%.

These data come from US11639372B1, “Zinc-charged peptides for the treatment of cancer and alzheimer's disease” (priority 2021, dated 2023).
